Literature values as cited in PMC3580849 (Bioorganic & medicinal chemistry letters, 2011).

Test system: Human M1 fibroblasts
Details: positive control, previously determined

Substance: H-KDLLEQKRAAVDTYC-NH2 [65–79*0401, H-Lys-Asp-Leu-Leu-Glu-Gln-Lys-Arg-Ala-Ala-Val-Asp-Thr-Tyr-Cys-NH2]
- optimal concentration for activation of NO production: 50 µM
